Values of other authors in patent US20210386367A1, “DEVICES AND SYSTEMS FOR GASTROINTESTINAL MICROBIOME DETECTION AND MANIPULATION” (Progenity, Inc., priority 2018, published 2021).
Values after ≈ are worked out from the molar mass of the structure shown.

Key:
Details in all cases: cited from earlier work
[1] = test system: Bacteroides spp. (B. fragilis ATCC 25285, B. vulgatus, B. ovatus MMX 3503)
Staphylococcus aureus = test system: Staphylococcus aureus
Streptococcus agalactiae = test system: Streptococcus agalactiae
Enterobacteriaceae = test system: Enterobacteriaceae
Escherichia coli = test system: Escherichia coli
Klebsiella pneumoniae = test system: Klebsiella pneumoniae
Bacteroides spp. = test system: Bacteroides spp.
Fusobacterium spp = test system: Fusobacterium spp
Veillonella spp = test system: Veillonella spp

## CO/N=C(\C(=O)N[C@@H]1C(=O)N2C(C(=O)O)=C(CSc3nc(=O)c(=O)[nH]n3C)CS[C@H]12)c1csc(N)n1 [ceftriaxone]
[1]
  CLSI QC range (agar MIC): 32 to 128 µg/mL
Staphylococcus aureus
  % S: 54.5%
  MIC50: 4 µg/mL (≈ 7.21 µM)
  MIC90: >8 µg/mL
Streptococcus agalactiae
  MIC50: 0.025 µg/mL (≈ 0.0451 µM)
  MIC90: 0.1 µg/mL (≈ 0.18 µM)
  MIC range: 0.012 to 0.1 µg/mL
Enterobacteriaceae
  % S: 87.5%
  MIC50: ≤1 µg/mL
  MIC90: 8 µg/mL (≈ 14.4 µM)
Escherichia coli
  % S: 87%
  MIC50: ≤0.25 µg/mL
  MIC90: 32 µg/mL (≈ 57.7 µM)
Klebsiella pneumoniae
  % S: 67%
  MIC50: ≤0.25 µg/mL
  MIC90: >64 µg/mL
Bacteroides spp.
  MIC50: >128 µg/mL
  MIC90: >128 µg/mL
Fusobacterium spp
  % S: 87%
  MIC50: 0.5 µg/mL (≈ 0.902 µM)
  MIC90: 32 µg/mL (≈ 57.7 µM)
Veillonella spp
  % S: 79%
  MIC50: 4 µg/mL (≈ 7.21 µM)
  MIC90: 8 µg/mL (≈ 14.4 µM)
  MIC range: 0.03 to 8 µg/mL
